Measured values reported in patent US20210340178A1, “NONAPEPTIDE PREVENTING INCREASED HYPERPERMEABILITY OF VASCULAR ENDOTHELIUM” (FEDERALNOYE GOSUDARSTVENNOE BUDGETNOE UCHREZHDENIE …, priority 2018, published 2021).
pIC50: −log10 of the molar value. Entries after “also recorded” stand apart in the source; their conditions may differ. Read-outs that look alike come from different tables or passages of the source. Non-standard residues stand in square brackets, D forms with d. Residues, ends and D or L forms follow the SMILES beside them. NMeR = CN[C@@H](CCCNC(=N)N)C(=O)O

Legend:
[1] = tested on: EA.hy926 endothelial cell monolayer; assay: Thrombin-mediated FITC-dextran permeability through endothelial cell monolayer; assay type: cell-based; details: peptide 100 μM, 60 min preincubation; thrombin 100 nM; 70 kDa FITC-dextran
Protocol: FIG. 3. The thrombin-mediated FITC-dextran permeability through the EA.hy926 endothelial cell monolayer in the presence of myosin light chain kinase peptide inhibitors. Thrombin (100 nM) was added at 0 min, the cells were preincubated for 60 min with MLCK peptide inhibitors (100 μM). Data are presented as mean±SD, n=5. p<0.05 for all data points within the 20-180 min time course range as compared to the thrombin-stimulated control.
Effects of the claimed peptide (PIK7), the prototype (PIK2), and the analogue (MLC11-19) on the endothelial permeability was assayed in a model of FITC-dextran diffusion through the endothelial monolayer as described in Example 3.
Cells were grown in 24-well plates (Greiner Bio-one, Austria) equipped with special inserts to form inner (upper) chambers with a porous bottom (the pore diameter of 0.4 μm, pore density of 10^8/cm^2) in DMEM until monolayer was formed (3-4 days). Successful monolayer was checked by measuring FITC-dextran diffusion for 1 hour through inserts with cell monolayers vs inserts without cells (‘blank’ inserts). Experiments were performed in triplicates when tight monolayers were formed. On the day of experiment, the cells were deprived for 1 h in DMEM supplemented with MLCK inhibitors or without inhibitors (control). After deprivation, FITC-dextran was added to the upper compartment to a final concentration of 0.05 mg/ml. In 30 and 60 min, a 10-μ1 aliquot was withdrawn from the lower compartment and mixed with 100 μl phosphate buffered saline pH 7.3 in a 96-well plate to estimate the endothelial monolayer baseline permeability. […] During the next 3 hrs, every 30 min, aliquots were taken from the lower compartment, and intensity of FITC fluorescence was measured using a Victor 3X plate reader (Perkin Elmer, USA) to plot the dynamics of the FITC fluorescence changes.
As shown, 100 nM thrombin induces the endothelial hyperpermeability response as reflected by an increase in 70 kDa FITC-dextran diffusion through the endothelial monolayer and an incremental increase in the fluorescence in the lower compartment of the diffusion chamber. […]

[2] = Acute toxicity in mice, single injection; assay type: in vivo; details: mouse, in vivo
Protocol: (§1) The study was conducted in 82 BALB/c mice (both males and females, body weight 18-24 g) obtained from the animal facility of the Scientific Center for Biomedical Technologies of the Federal Medico-Biological Agency of the Russian Federation (SCBMT). The animals were certified and otherwise healthy. The animals were kept in T-3 cages (5-10 animals per cage) with artificial 12 hrs light-dark cycles and 16× per hour forced air ventilation, temperature of 20-22° C. and 50-65% humidity on wood chips sterilized by hot air. The animals had free access to drinking water and PK-120-1 mouse cubes (GOST P50258-92; Laboratorsnab LLC, Russia).
(§2) PIK2 and PIK7 peptides were dissolved in water and administered to mice as a single intraperitoneal injection. The animals were followed for 14 days after peptide injections. An increasing dosage scheme was applied where each tested dose surpassed the previous dose by 50%. The lowest dose of the active substance was determined that caused animal death.

BALB/c mice = assay: Acute toxicity in mice, single injection; assay type: in vivo
Protocol: as §1, §2

[3] = rabbit, in vivo, iv
Protocol: (§3) PIK2 dose of 5 mg/kg was calculated individually for each rabbit and administered into marginal ear vein in a final volume of 1.7-1.9 mL in sterile physiological saline. Stock concentration of the tested substance was 10 mg/mL.
(§4) During the 24-hrs testing period, the overall health status and behavior were monitored (appetite, motion activity, hair coat condition).
(§5) Before injection of test substances (baseline) and 4 hrs and 24 hrs after the injection, the following parameters were tested in whole venous blood samples (3.0-3.5 mL) collected from a marginal ear vein red blood cell (RBC) count, hematocrit, hemoglobin level, mean RBC volume, mean corpuscular hemoglobin, total leukocyte, lymphocyte, and granulocyte counts and their percentages, platelet count, and mean platelet volume. In parallel, the following biochemical parameters were measured in serum total protein, bilirubin, urea, creatinine, glucose, total cholesterol, triglycerides, and activities of alkaline phosphatase, lactate dehydrogenase, aspartate aminotransferase, and alanine aminotransferase. Blood cell count was performed using an Abacus junior vet (Austria) hematological cell counter; biochemical studies were performed using a Targa-2000 (Italy) instrument.

[4] = cited from earlier work
[5] = tested on: endothelial hyperpermeability; details: cited from earlier work
lung edema in rats = details: cited from earlier work
in vivo = details: male, Chinchilla, rabbit, 5 mg/kg
Protocol: as §3, §4, §5

Chinchilla rabbits = assay: Tolerance of a single intravenous injection in Chinchilla rabbits; details: i.v. 5 mg/kg
Protocol: as §3, §4, §5

[6] = target: smooth-muscle myosin light-chain kinase; details: Hunt et al., 1989; cited from earlier work
[7] = Peptide half-lives in human plasma in vitro (1H-NMR spectroscopy); assay type: in vitro ADME; details: human, plasma, 1H-NMR, 37° C., peptide 3 mg/ml; read-out: T1/2, half-life in human plasma in vitro
Protocol: Whole blood (100 mL) was collected from healthy donors to 50-mL tubes containing 5 mL of a preservative (130 mM citrate in phosphate buffered saline (PBS), pH 7.4). The blood was incubated for 15-20 min at room temperature followed by centrifugation at 1500 g for 15 min at 18° C. The supernatants were transferred to clear tubes and centrifuged as above. Dry NaBr was added to the plasma (280 mg per 1 mL of plasma). After dissolution of NaBr, the plasma (approx. 30 mL) was transferred to centrifuge tubes (Type 45Ti rotor, Beckman, USA) and layered with 20 mL of a solution (specific mass of […]), which was prepared as follows—11.42 g of NaCl and 100 mg of ethylenediaminetetraacetic acid (EDTA) were dissolved in distilled water in a final volume of 1 L (pH 7.4) and 281.44 g of NaBr was added. The plasma was centrifuged at 40,000 rpm for 48 hrs. The upper dark-yellow fraction containing lipoproteins and the colorless buffer fraction were discarded leaving approx. 1-cm high buffer above the apparent plasma border. Portions of plasma obtained from one donor were pooled and dialyzed for 36 hrs against 4 L of PSB free of Ca^2+ and Mg^2+(MP Biomedicals, USA) in dialysis bags with 12-14 kDa pore sizes. The dialysis procedure was repeated twice with fresh buffer changed every 24 hrs. After the dialysis, the plasma was centrifuged at 25,000 rpm (Type 45Ti rotor, Beckman, USA) for 15 min at 4° C. The supernatant fraction was collected and lyophilized. The dry matter was dissolved in D2O in a final volume equal to the plasma volume before NaBr was added, lyophilized again, dissolved in the same volume of D2O, and stored in 1-mL aliquots at −20° C. before use.
^1H-NMR spectroscopy was employed to analyze relative degradation of PIK7 (the claimed peptide) and MLC11-19 (the structural analogue) in human plasma. ^1H-NMR spectroscopy allows simultaneous direct monitoring the amounts of original full-length peptide and its fragments during the course of enzymatic hydrolysis (Isakova et al., 1986). Stability of a peptide, its degradation pathway(s) and a half-life estimate are available from a comparison of spectra obtained at different time points after the addition of a peptide to plasma. ^1H-NMR spectra were obtained using a WM-500 spectrometer (Bruker, Germany) at 37° C. Chemical shifts in ^1H-NMR spectra were measured relative to an internal standard (2,2-dimethyl-2-silapentane-5-sulfonate sodium salt). The signals were referenced by the double-resonance method. The resonances from peptide protons were identified by the differential spectroscopy method, i.e. the spectrum of blood plasma was subtracted from each spectrum obtained in the presence of peptide of interest. Peptide concentrations were 3 mg/ml.
These indicate the peptide N-terminus degradation. […] Therefore, the claimed peptide has an increased life-span in plasma that allows for long-lasting maintenance of its effective concentrations necessary to decrease the endothelial hyperpermeability under emergency conditions. Moreover, an increased life-time allows attaining the desired therapeutic effect with lower (as compared to homologues) peptide concentrations.

[8] = tested on: MLC phosphorylation in neutrophils; details: Chilcoat et al., 2008; cited from earlier work
MLCK = MLCK (Homo sapiens, UniProt Q15746); details: in vitro; Sekridova et al., 2010 / RU 2402565; cited from earlier work

Q: Which “effect on thrombin-induced FITC-dextran hyperpermeability” value [1] does the source give for `CN[C@@H](CCCNC(=N)N)C(=O)N[C@@H](CCCCN)C(=O)N[C@@H](CCCCN)C(=O)N[C@@H](Cc1ccc(O)cc1)C(=O)N[C@@H](CCCCN)C(=O)N[C@@H](Cc1ccc(O)cc1)C(=O)N[C@@H](CCCNC(=N)N)C(=O)N[C@H](CCCNC(=N)N)C(=O)N[C@@H](CCCCN)C(N)=O` [PIK2, H—(N—Me)-Arg^1-Lys-Lys-Tyr-Lys-Tyr-Arg^7-D-Arg^8-Lys-NH2] (H-[NMeR]KKYKYR[dR]K-NH2) here?
A: completely abolished the FITC-dextran hyperpermeability; also recorded: effectively abolished FITC-dextran hyperpermeability

Q: What about the LD50 at 14 days ([2]; both sexes, BALB/c, intraperitoneal, mice, Table 3) of the same compound?
A: 18 mg/kg

Q: And the LD50 ([2]; after single intravenous injection (as printed in b7), read-out: LD50 in mice)?
A: 18 mg/kg

Q: What about the “lowest dose of the active substance that caused animal death” value (BALB/c mice; BALB/c mice, single intraperitoneal injection, followed 14 days) of the same compound?
A: 27 mg/kg

Q: And the “signs after a toxic dose” value (BALB/c mice; mice, single intraperitoneal injection of a toxic dose)?
A: movement retardation and death within the following 24 hrs

Q: What about the LD50 [3] of the same compound?
A: ≤ 5 mg/kg

Q: And the “T1/2, half-life in human plasma in vitro” value ([4]; Khapchaev et al., 2016)?
A: >540 min

Q: What about the “stability, fold higher as compared to PIK1” value ([4]; RU 2493164) of the same compound?
A: 4 fold

Q: What about the “effect on thrombin-mediated endothelial hyperpermeability in vitro” value ([5]; peptide 20 μM) of the same compound?
A: completely abolished the thrombin-mediated endothelial hyperpermeability

Q: And the “effect on endothelial hyperpermeability response and lung edema” value (lung edema in rats)?
A: abrogation of the endothelial hyperpermeability response and lung edema in rats

Q: And the LD50 at 24 h (in vivo)?
A: 5 mg/kg

Q: And the mortality (Chinchilla rabbits; group of 4)?
A: two rabbits died on the 7th and 10th minute

Q: And the “clinical signs after injection” value (Chinchilla rabbits; second minute after injection)?
A: irregular breathing, shortness of breath, muscular stiffness, prone position with straighten extremities

Q: With “H-D-Lys-Lys-Arg-Ala-Ala-Arg-NH2 (H-[dK]KRAAR-NH2; SMILES C[C@H](NC(=O)[C@H](C)NC(=O)[C@H](CCCNC(=N)N)NC(=O)[C@H](CCCCN)NC(=O)[C@H](N)CCCCN)C(=O)N[C@@H](CCCNC(=N)N)C(N)=O) [RLC 11-16 hexapeptide with N-terminal L-Lys substituted with D-Lys]” as the compound, how does the pIC50 [6] read?
A: 3.74

Q: For “H-KKRAARATS-NH2 [MLC11-19, H-Lys-Lys-Arg-Ala-Ala-Arg-Ala-Thr-Ser-NH2]”, which half-life [7] is on record?
A: 32 min

Q: What about the “effect on thrombin-induced FITC-dextran hyperpermeability” value [1] of the same compound?
A: completely abolished the FITC-dextran hyperpermeability; also recorded: effectively abolished FITC-dextran hyperpermeability

Q: And the “effect on MLC phosphorylation in neutrophils” value [8]?
A: decreases MLC phosphorylation in neutrophils

Q: With “H-L-Lys-Lys-Arg-Ala-Ala-Arg-NH2 (H-KKRAAR-NH2)” as the compound, how does the pIC50 [6] read?
A: 4.66

Q: What does the source list for “H-MeArg^1-Lys-Lys-Tyr-Lys-Tyr-Arg-Arg-Lys-NH2 (H-[NMeR]KKYKYRRK-NH2) [PIK1, L-PIK modified at the N-terminal amino acid]”?
A: inhibitory activity compared to L-PIK (MLCK): comparable to that of L-PIK; half-life in human plasma in vitro, fold higher as compared to L-PIK ([4]; RU 2402565): ~3 fold; inhibition of thrombin-mediated endothelial hyperpermeability ([5]; peptide 100 μM): 1.6 fold
